Measurements taken from patent US20240150377A1, “MODULATORS OF CYSTIC FIBROSIS TRANSMEMBRANE CONDUCTANCE REGULATOR” (VERTEX PHARMACEUTICALS INCORPORATED, priority 2020, published 2024).
Read-outs that look alike come from different tables or passages of the source. One block for each compound: values may come before it.

Legend:
[1] = target: T1, CFTR (Homo sapiens, UniProt P13569, DEL508-508); assay: HBE assay: Ussing chamber assay of CFTR-mediated short-circuit currents; type: cell-based; settings: for activation at 10 µM: HBE assay, read-out: HBE Activity at 10 μM (%)
T1 construct: endogenous in cells; host or cells: primary human bronchial epithelial cells from CF subjects (F508del/MF-HBE), differentiated at air-liquid interface
How it was run: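 CFTR-mediated Isc (μA/cm²) equals the peak response to apical 20 μM forskolin minus the residual after a 20 μM each BPO/GlyH-101/CFTR inhibitor 172 cocktail, recorded in Ussing chambers at Vhold 0 mV, 37 °C, pH 7.4, with 30 μM apical amiloride. Cells were F508del/MF HBE cultures preincubated 18-24 h with corrector (concentration range or 10 μM) plus 1 μM ivacaftor in 20% human serum.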

[2] = target: T1, CFTR; assay: HBE2 assay: Ussing chamber assay of CFTR-mediated short-circuit currents; type: cell-based; settings: F508del/MF-HBE cells, with 44 nM potentiator, 18-24 hours, 20% human serum; for Emax: read-out: HBE2 Max activity (%)
How it was run: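 Corrector activity read as CFTR-dependent ISC (μA/cm^2): peak forskolin current minus post-inhibitor steady state. Measured at 37 °C, voltage clamp at 0 mV, on F508del/MF-HBE epithelia grown >14 days air-liquid interface in Ussing chambers.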

[3] = amide bond, 13-membered ring, DMF
[4] = target: CFTR (Homo sapiens, UniProt P13569); assay: Membrane potential dye, Enteroid Assay A; type: cell-based; settings: for Ent. A Max Activity: chloride transport as % of triple combination control (Enteroid Assay A); for EC50: human enteroid cells, 18-24 hours, acute 10 μM forskolin and 300 nM ivacaftor, read-out: Ent. A EC50
How it was run: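 % Activity: chloride transport relative to a 3 μM/3 μM corrector pair plus 300 nM acute potentiator control. Primary human enteroid cells, 18-24 h compound exposure at 37 °C; membrane potential dye (methyl oxonol) fluorescence over 15 min after forskolin (10 μM)/IBMX (100 μM)/Compound III (300 nM) stimulation in chloride-free buffer.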

CFTR (Homo sapiens, UniProt P13569), sequence (P13569 with tags, fused parts or gaps DEL508-508): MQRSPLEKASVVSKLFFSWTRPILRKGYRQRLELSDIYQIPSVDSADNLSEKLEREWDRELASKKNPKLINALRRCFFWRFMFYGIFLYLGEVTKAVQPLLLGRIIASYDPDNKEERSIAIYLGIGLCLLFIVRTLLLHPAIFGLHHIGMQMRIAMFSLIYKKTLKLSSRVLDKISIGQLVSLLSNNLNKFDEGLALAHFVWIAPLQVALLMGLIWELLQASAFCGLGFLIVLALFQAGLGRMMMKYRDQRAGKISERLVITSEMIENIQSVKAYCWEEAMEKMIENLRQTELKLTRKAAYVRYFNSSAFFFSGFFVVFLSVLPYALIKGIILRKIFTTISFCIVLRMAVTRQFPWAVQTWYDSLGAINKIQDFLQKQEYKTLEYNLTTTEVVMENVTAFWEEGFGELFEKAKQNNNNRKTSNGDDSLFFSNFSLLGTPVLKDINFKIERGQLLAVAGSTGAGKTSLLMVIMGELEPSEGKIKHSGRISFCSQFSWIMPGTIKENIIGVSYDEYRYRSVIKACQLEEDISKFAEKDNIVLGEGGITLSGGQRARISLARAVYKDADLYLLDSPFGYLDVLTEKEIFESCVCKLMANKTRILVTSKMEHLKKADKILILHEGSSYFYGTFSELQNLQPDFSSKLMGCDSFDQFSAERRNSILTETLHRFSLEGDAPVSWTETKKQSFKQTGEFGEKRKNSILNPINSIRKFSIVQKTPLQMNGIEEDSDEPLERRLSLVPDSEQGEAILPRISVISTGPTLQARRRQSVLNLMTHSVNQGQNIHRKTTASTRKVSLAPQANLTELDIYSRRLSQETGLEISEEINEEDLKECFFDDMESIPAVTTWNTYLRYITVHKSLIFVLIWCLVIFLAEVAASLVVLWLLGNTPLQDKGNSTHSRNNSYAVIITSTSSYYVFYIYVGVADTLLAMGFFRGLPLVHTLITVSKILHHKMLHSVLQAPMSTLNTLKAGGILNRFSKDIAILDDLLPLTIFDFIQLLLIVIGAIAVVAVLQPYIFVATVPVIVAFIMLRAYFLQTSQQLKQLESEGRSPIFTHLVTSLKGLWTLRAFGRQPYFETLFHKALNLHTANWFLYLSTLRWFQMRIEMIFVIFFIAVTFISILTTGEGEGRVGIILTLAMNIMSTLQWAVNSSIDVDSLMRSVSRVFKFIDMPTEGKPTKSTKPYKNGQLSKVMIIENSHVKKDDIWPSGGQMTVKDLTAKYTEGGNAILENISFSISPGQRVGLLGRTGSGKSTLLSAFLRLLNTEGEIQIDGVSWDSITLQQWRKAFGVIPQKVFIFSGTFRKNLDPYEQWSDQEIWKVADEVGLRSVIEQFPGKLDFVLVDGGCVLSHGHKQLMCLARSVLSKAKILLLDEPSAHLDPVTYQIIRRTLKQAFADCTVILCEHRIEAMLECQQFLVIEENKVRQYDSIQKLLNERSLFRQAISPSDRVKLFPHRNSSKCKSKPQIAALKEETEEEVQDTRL
T1 sequence (P13569 with tags, fused parts or gaps DEL508-508): as above

HBE2 Activity at 3 μM (%) [2]: +++ (+++ is >60+)
EC50 [2]: < 1000 nM
Emax [2]: > 60%
SMILES: Cc1cccc(C)c1-c1cc2nc(n1)NS(=O)(=O)c1cccc(c1)C(=O)N(Cc1cncc(N(C)C3CCC3)n1)[C@H](CCC(C)(C)C)CO2 [Compound 1319, (11R)-12-[[6-[Cyclobutyl(methyl)amino]pyrazin-2-yl]methyl]-11-(3,3-dimethylbutyl)-6-(2,6-dimethylphenyl)-2,2-dioxo-9-oxa-2λ^6-thia-3,5,12,19-tetrazatricyclo[12.3.1.14,8]nonadeca-1(18),4(19),5,7,14,16-hexaen-13-one]
ring closure, yield after HPLC ([3]; from Cc1cccc(C)c1-c1cc(OC[C@@H](CCC(C)(C)C)NCc2cncc(N(C)C3CCC3)n2)nc(NS(=O)(=O)c2cccc(C(=O)O)c2)n1, CDMT/NMM, 26.4 mM, 13.1 h): 44%

Ent. A Max Activity ([4]; Table 7): +++ (+++ is >60%)
EC50 ([4]; Table 7): < 1000 nM
SMILES: Cc1cccc(C)c1-c1cc2nc(n1)NS(=O)(=O)c1cccc(c1)C(=O)N(Cc1cn(C)nc1C(C)(C)C)[C@H](CC(C)C)CO2 [Compound 83, (11R)-12-[(3-tert-Butyl-1-methyl-pyrazol-4-yl)methyl]-6-(2,6-dimethylphenyl)-11-isobutyl-2,2-dioxo-9-oxa-2λ^6-thia-3,5,12,19-tetrazatricyclo[12.3.1.14,8]nonadeca-1(18),4(19),5,7,14,16-hexaen-13-one]
ring closure, yield after HPLC ([3]; from Cc1cccc(C)c1-c1cc(OC[C@@H](CC(C)C)NCc2cn(C)nc2C(C)(C)C)nc(NS(=O)(=O)c2cccc(C(=O)O)c2)n1, HATU/DIEA, 20.4 mM, 25.0 °C, 18.0 h): 32%

Ent. A Max Activity ([4]; Table 6): +++ (+++ is >60%)
EC50 ([4]; Table 6): < 1000 nM
SMILES: Cc1cccc(C)c1-c1cc2nc(n1)NS(=O)(=O)c1cccc(c1)C(=O)N(CCC(C)(C)C)[C@H](CC(C)(C)C)CO2 [Compound 138, (11R)-12-(3,3-Dimethylbutyl)-6-(2,6-dimethylphenyl)-11-(2,2-dimethylpropyl)-2,2-dioxo-9-oxa-2λ^6-thia-3,5,12,19-tetrazatricyclo[12.3.1.14,8]nonadeca-1(18),4(19),5,7,14,16-hexaen-13-one]
ring closure, yield after HPLC ([3]; from Cc1cccc(C)c1-c1cc(OC[C@@H](CC(C)(C)C)NCCC(C)(C)C)nc(NS(=O)(=O)c2cccc(C(=O)O)c2)n1, HATU/DIEA, 8.4 mM, 2.0 h): 39%

EC50 ([1]; Table 10, read-out: HBE EC50): < 1000 nM
Emax ([1]; Table 10, read-out: HBE Max activity (%)): > 60%
SMILES: Cc1cccc(C)c1-c1cc2nc(n1)NS(=O)(=O)c1cccc(c1)C(=O)N(Cc1ccc(N3CCOCC3)nn1)[C@H](CC(C)(C)C)CO2 [Compound 111, (11R)-6-(2,6-Dimethylphenyl)-11-(2,2-dimethylpropyl)-12-[(6-morpholinopyridazin-3-yl)methyl]-2,2-dioxo-9-oxa-2λ^6-thia-3,5,12,19-tetrazatricyclo[12.3.1.14,8]nonadeca-1(18),4(19),5,7,14,16-hexaen-13-one]
ring closure, yield after HPLC ([3]; from Cc1cccc(C)c1-c1cc(OC[C@@H](CC(C)(C)C)NCc2ccc(N3CCOCC3)nn2)nc(NS(=O)(=O)c2cccc(C(=O)O)c2)n1, CDMT/NMM, 25.0 °C, 3.0 h, 2 steps): 10%

Further lines, the compound ahead of its results:

SMILES: Cc1cccc(C)c1-c1cc2nc(n1)NS(=O)(=O)c1cccc(c1)C(=O)N(Cc1ncc(N3CC(C)(C)C3)cn1)[C@H](CC1(C)CC1)CO2 [Compound 1307, (11R)-12-[[5-(3,3-Dimethylazetidin-1-yl)pyrimidin-2-yl]methyl]-6-(2,6-dimethylphenyl)-11-[(1-methylcyclopropyl)methyl]-2,2-dioxo-9-oxa-2λ^6-thia-3,5,12,19-tetrazatricyclo[12.3.1.14,8]nonadeca-1(18),4(19),5,7,14,16-hexaen-13-one]
activation at 10 µM [1]: > 60%
HBE2 Activity at 3 μM (%) [2]: +++ (+++ is >60+)
ring closure, yield after HPLC ([3]; from Cc1cccc(C)c1-c1cc(OC[C@@H](CC2(C)CC2)NCc2ncc(N3CC(C)(C)C3)cn2)nc(NS(=O)(=O)c2cccc(C(=O)O)c2)n1, CDMT/NMM, 24.2 mM, 3.0 h): 65%

SMILES: Cc1cccc(C)c1-c1cc2nc(n1)NS(=O)(=O)c1cccc(c1)C(=O)N(CCC(C)(C)C)CC(c1ccc(C(C)(C)C)cc1)O2 (centres unmarked) [Compound 14, 10-(4-tert-butylphenyl)-12-(3,3-dimethylbutyl)-6-(2,6-dimethylphenyl)-2,2-dioxo-9-oxa-2λ^6-thia-3,5,12,19-tetrazatricyclo[12.3.1.14,8]nonadeca-1(18),4(19),5,7,14,16-hexaen-13-one]
Ent. A Max Activity ([4]; Table 6): ++ (++ is 30-60%)
EC50 ([4]; Table 6): < 1000 nM
ring closure, yield after HPLC ([3]; from Cc1cccc(C)c1-c1cc(OC(CNCCC(C)(C)C)c2ccc(C(C)(C)C)cc2)nc(NS(=O)(=O)c2cccc(C(=O)O)c2)n1, HATU/TEA, 0.42 h, 2 steps): 6%

SMILES: Cc1cccc(C)c1-c1cc2nc(n1)NS(=O)(=O)c1cccc(c1)C(=O)N(Cc1ncc(OC(C)C)cn1)[C@H](CC1(C)CCC1)CO2 [Compound 1317, (11R)-6-(2,6-Dimethylphenyl)-12-[(5-isopropoxypyrimidin-2-yl)methyl]-11-[(1-methylcyclobutyl)methyl]-2,2-dioxo-9-oxa-2λ6-thia-3,5,12,19-tetrazatricyclo[12.3.1.14,8]nonadeca-1(18),4(19),5,7,14,16-hexaen-13-one]
HBE2 Activity at 3 μM (%) [2]: +++ (+++ is >60+)
ring closure, yield after HPLC ([3]; from Cc1cccc(C)c1-c1cc(OC[C@@H](CC2(C)CCC2)NCc2ncc(OC(C)C)cn2)nc(NS(=O)(=O)c2cccc(C(=O)O)c2)n1, CDMT/NMM, 12.9 mM, 22.0 h): 64%

SMILES: Cc1cccc(C)c1-c1cc2nc(n1)NS(=O)(=O)c1cccc(c1)C(=O)N(C)CC(c1ccc(C(C)(C)C)cc1)O2 (racemic) [Compound 10, 10-(4-tert-butylphenyl)-6-(2,6-dimethylphenyl)-12-methyl-2,2-dioxo-9-oxa-2λ^6-thia-3,5,12,19-tetrazatricyclo[12.3.1.14,8]nonadeca-1(18),4(19),5,7,14,16-hexaen-13-one]
Ent. A Max Activity ([4]; Table 6): +++ (+++ is >60%)
EC50 ([4]; Table 6): < 1000 nM
ring closure, yield after HPLC ([3]; from CNCC(Oc1cc(-c2c(C)cccc2C)nc(NS(=O)(=O)c2cccc(C(=O)O)c2)n1)c1ccc(C(C)(C)C)cc1, HATU/DIEA, 15.4 mM, 25.0 °C, 0.25 h, 2 steps): 19%

SMILES: Cc1cccc(C)c1-c1cc2nc(n1)NS(=O)(=O)c1cccc(c1)C(=O)N(Cc1ncc(OC(C)C)cn1)[C@H](CC1(C)CC1)CO2 [Compound 1306, (11R)-6-(2,6-Dimethylphenyl)-12-[(5-isopropoxypyrimidin-2-yl)methyl]-11-[(1-methylcyclopropyl)methyl]-2,2-dioxo-9-oxa-2λ^6-thia-3,5,12,19-tetrazatricyclo[12.3.1.14,8]nonadeca-1(18),4(19),5,7,14,16-hexaen-13-one]
activation at 10 µM [1]: > 60%
HBE2 Activity at 3 μM (%) [2]: +++ (+++ is >60+)
EC50 [2]: < 1000 nM
Emax [2]: > 60%
ring closure, yield after HPLC ([3]; from Cc1cccc(C)c1-c1cc(OC[C@@H](CC2(C)CC2)NCc2ncc(OC(C)C)cn2)nc(NS(=O)(=O)c2cccc(C(=O)O)c2)n1, CDMT/NMM, 33.8 mM, 4.0 h): 53%

SMILES: Cc1cccc(C)c1-c1cc2nc(n1)NS(=O)(=O)c1cccc(c1)C(=O)N(C)CC(c1ccc(C(C)(C)C)cn1)O2 (centres unmarked) [Compound 101, 10-(5-tert-butyl-2-pyridyl)-6-(2,6-dimethylphenyl)-12-methyl-2,2-dioxo-9-oxa-2λ^6-thia-3,5,12,19-tetrazatricyclo[12.3.1.14,8]nonadeca-1(18),4(19),5,7,14,16-hexaen-13-one]
Ent. A Max Activity ([4]; Table 6): +++ (+++ is >60%)
EC50 ([4]; Table 6): < 1000 nM
ring closure, yield after HPLC ([3]; from CNCC(Oc1cc(-c2c(C)cccc2C)nc(NS(=O)(=O)c2cccc(C(=O)O)c2)n1)c1ccc(C(C)(C)C)cn1, HATU/DIEA, 10.5 mM, 25.0 °C, 0.083 h, 2 steps): 55%

SMILES: Cc1cccc(C)c1-c1cc2nc(n1)NS(=O)(=O)c1cccc(c1)C(=O)N(CCC1CCOCC1)C(CCC1(C(F)(F)F)CC1)CO2 (centres unmarked) [Compound 74, 6-(2,6-dimethylphenyl)-2,2-dioxo-12-(2-tetrahydropyran-4-ylethyl)-11-[2-[1-(trifluoromethyl)cyclopropyl]ethyl]-9-oxa-2λ^6-thia-3,5,12,19-tetrazatricyclo[12.3.1.14,8]nonadeca-1(18),4(19),5,7,14,16-hexaen-13-one]
Ent. A Max Activity ([4]; Table 6): +++ (+++ is >60%)
EC50 ([4]; Table 6): < 1000 nM
ring closure, yield after HPLC ([3]; from Cc1cccc(C)c1-c1cc(OCC(CCC2(C(F)(F)F)CC2)NCCC2CCOCC2)nc(NS(=O)(=O)c2cccc(C(=O)O)c2)n1, HATU/DIEA, 24.1 mM, 16.0 h): 23%
